≈ marks a conversion by molar mass, not a printed value.
How the values were obtained:
[1] = Storage stability at 40° C. and 75% RH (XRPD); assay type: physicochemical; conditions: for change on storage at 40° C. and 75% RH: one week
[2] = Form stability under aqueous conditions / during solubility analysis; assay type: physicochemical
[3] = Aqueous solubility of polymorphs of Compound Ia; assay type: physicochemical
[4] = Gravimetric vapor sorption (GVS) moisture sorption isotherm; assay type: physicochemical; conditions: for weight increase / mass uptake between 0 and 90% RH / mass gain/loss upon multiple sorption and desorption cycles: GVS, 25° C.; for weight increase / mass uptake between 0 and 90% RH: 0 to 90% RH; for XRPD re-analysis under ambient conditions after GVS: after GVS weight uptake/loss
Method: GVS data was also collected by Pharmorphix, Ltd. All samples were run on a Hiden IGASorp moisture sorption analyzer running CFRSorp software. Sample sizes were typically 10 mg. A moisture adsorption-desorption isotherm was performed as outlined below, with two scans giving one complete cycle. All samples were loaded and unloaded at typical ambient (room) humidity and temperature (40% RH, 25° C.). All samples were analyzed by XRPD after GVS analysis. The standard isotherm was performed at 25° C. at 10% RH intervals over a 0 to 90% RH range. [table]

[5] = Retention of crystallinity on heating or vacuum drying (XRPD); assay type: physicochemical
Excerpt: XRPD patterns were collected on a Bruker AXS C2 GADDS diffractometer using Cu Kα radiation (40 kV, 40 mA), automated XYZ stage, laser video microscope for auto-sample positioning and a HiStar 2-dimensional area detector. X-ray optics consisted of a single Göbel multilayer mirror coupled with a pinhole collimator of 0.3 mm.
The beam divergence, i.e. the effective size of the X-ray beam on the sample, was approximately 4 mm. A θ-θ continuous scan mode was employed with a sample-detector distance of 20 cm which gave an effective 2θ range of 3.2° to 29.7°. Typically the sample would be exposed to the X-ray beam for 120 seconds.

motilin receptor = motilin receptor (Homo sapiens, UniProt O43193); conditions: cited from earlier work
Sequence of motilin receptor (O43193 whole entry, species assumed): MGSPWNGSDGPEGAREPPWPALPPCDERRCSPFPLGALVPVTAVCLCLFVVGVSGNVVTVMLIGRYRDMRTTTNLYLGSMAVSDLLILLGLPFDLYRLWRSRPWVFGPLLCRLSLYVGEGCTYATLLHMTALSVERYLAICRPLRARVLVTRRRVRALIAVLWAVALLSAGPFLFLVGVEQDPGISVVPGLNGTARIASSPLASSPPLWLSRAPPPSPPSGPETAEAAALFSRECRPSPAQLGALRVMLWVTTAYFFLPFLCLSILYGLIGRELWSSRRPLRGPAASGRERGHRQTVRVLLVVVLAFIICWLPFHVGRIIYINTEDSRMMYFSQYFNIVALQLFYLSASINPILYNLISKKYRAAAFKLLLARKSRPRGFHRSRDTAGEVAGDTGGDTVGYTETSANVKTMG

Row | weight increase / mass uptake between 0 and 90% RH [4] [%] | mass gain/loss upon multiple sorption and desorption cycles [4] | XRPD re-analysis under ambient conditions after GVS [4] | SMILES | polymorph change under aqueous conditions / during solubility analysis [2] | also measured
1 | – | – | – | CC[C@H]1OC(=O)[C@H](C)[C@@H](O[C@H]2C[C@@](C)(OC)[C@@H](O)[C@H](C)O2)[C@H](C)[C@@H](O[C@@H]2O[C@H](C)C[C@H](N(C)C(C)C)[C@H]2O)[C@](C)(O)C[C@@H](C)[C@H](OCC(=O)NC)[C@H](C)[C@@H](O)[C@]1(C)O [Polymorph V] | converted to Polymorph II | change on storage at 40° C. and 75% RH [1]: decreased in crystallinity; aqueous solubility [3]: 0.72 mg/mL (≈ 862 µM)
2 | 3 | changed drastically | loss of crystallinity | CC[C@H]1OC(=O)[C@H](C)[C@@H](O[C@H]2C[C@@](C)(OC)[C@@H](O)[C@H](C)O2)[C@H](C)[C@@H](O[C@@H]2O[C@H](C)C[C@H](N(C)C(C)C)[C@H]2O)[C@](C)(O)C[C@@H](C)[C@H](OCC(=O)NC)[C@H](C)[C@@H](O)[C@]1(C)O [Polymorph VII] | converted to a mixture of Polymorphs II and IV | change on storage at 40° C. and 75% RH [1]: lost crystallinity; weight change by GVS analysis [4]: constant weight loss; aqueous solubility [3]: 0.75 mg/mL (≈ 898 µM)
3 | – | changed drastically | – | CC[C@H]1OC(=O)[C@H](C)[C@@H](O[C@H]2C[C@@](C)(OC)[C@@H](O)[C@H](C)O2)[C@H](C)[C@@H](O[C@@H]2O[C@H](C)C[C@H](N(C)C(C)C)[C@H]2O)[C@](C)(O)C[C@@H](C)[C@H](OCC(=O)NC)[C@H](C)[C@@H](O)[C@]1(C)O [Polymorph VI] | – | change on storage at 40° C. at 75% RH ([1]; duration not stated): converted to Polymorph IV
4 | – | changed drastically | loss of crystallinity | CC[C@H]1OC(=O)[C@H](C)[C@@H](O[C@H]2C[C@@](C)(OC)[C@@H](O)[C@H](C)O2)[C@H](C)[C@@H](O[C@@H]2O[C@H](C)C[C@H](N(C)C(C)C)[C@H]2O)[C@](C)(O)C[C@@H](C)[C@H](OCC(=O)NC)[C@H](C)[C@@H](O)[C@]1(C)O [Polymorph II] | – | crystallinity during vacuum drying ([5]; vacuum drying at 30° C. for 72 h): loses crystallinity; weight loss when kept at between 5 and 0% RH ([4]; between 5 and 0% RH): 4%
5 | – | – | – | CC[C@H]1OC(=O)[C@H](C)[C@@H](O[C@H]2C[C@@](C)(OC)[C@@H](O)[C@H](C)O2)[C@H](C)[C@@H](O[C@@H]2O[C@H](C)C[C@H](N(C)C)[C@H]2O)[C@](C)(O)C[C@@H](C)C(=O)[C@H](C)[C@@H](O)[C@]1(C)O [erythromycin A (1), Erythromycin A] | – | motilin agonist activity (motilin receptor): motilin agonist activity
6 | 3.5 | very uniform | did not lead to a change in XRPD pattern | CC[C@H]1OC(=O)[C@H](C)[C@@H](O[C@H]2C[C@@](C)(OC)[C@@H](O)[C@H](C)O2)[C@H](C)[C@@H](O[C@@H]2O[C@H](C)C[C@H](N(C)C(C)C)[C@H]2O)[C@](C)(O)C[C@@H](C)[C@H](OCC(=O)NC)[C@H](C)[C@@H](O)[C@]1(C)O [Polymorph IV] | Neither storage at 40 °C at 75% R^H for 10 weeks nor handling during solubility analysis produced any significant changes | XRPD pattern on heating ([5]; heating up to the melt): no change in XRPD pattern; change on storage at 40° C. at 75% RH ([1]; 10 weeks): Neither storage at 40 °C at 75% R^H for 10 weeks nor handling during solubility analysis produced any significant changes; solubility ([3]; water): 0.77 mg/mL (≈ 922 µM)
7 | 8.5 | changed drastically | – | CC[C@H]1OC(=O)[C@H](C)[C@@H](O[C@H]2C[C@@](C)(OC)[C@@H](O)[C@H](C)O2)[C@H](C)[C@@H](O[C@@H]2O[C@H](C)C[C@H](N(C)C(C)C)[C@H]2O)[C@](C)(O)C[C@@H](C)[C@H](OCC(=O)NC)[C@H](C)[C@@H](O)[C@]1(C)O [Polymorph I] | converted to a second polymorph, referred to as Polymorph II | –

— patent US8030282B2, “Motilide polymorphs” (priority 2006, dated 2011)
